Laboratory results from US20240398813A1, “PHARMACEUTICAL COMPOSITION FOR PREVENTING OR TREATING OVERACTIVE BLADDER” (GWANGJU INSTITUTE OF SCIENCE AND TECHNOLOGY, priority 2021, published 2024).

biological target: T1, hyperactive mutant BKCa channels (hSlo G803D/N806K) stably expressed in AD 293 cells (Homo sapiens, UniProt Q12791, G856D/N859K); experiment: Cell-based fluorescence assay (FluxOR Potassium Ion Channel Assay) of BKCa channel activation; settings: compounds at 5 μM; n=3; vehicle 0.26
T1 construct: expressed in transfected cells
T1 sequence (Q12791 whole entry G856D/N859K): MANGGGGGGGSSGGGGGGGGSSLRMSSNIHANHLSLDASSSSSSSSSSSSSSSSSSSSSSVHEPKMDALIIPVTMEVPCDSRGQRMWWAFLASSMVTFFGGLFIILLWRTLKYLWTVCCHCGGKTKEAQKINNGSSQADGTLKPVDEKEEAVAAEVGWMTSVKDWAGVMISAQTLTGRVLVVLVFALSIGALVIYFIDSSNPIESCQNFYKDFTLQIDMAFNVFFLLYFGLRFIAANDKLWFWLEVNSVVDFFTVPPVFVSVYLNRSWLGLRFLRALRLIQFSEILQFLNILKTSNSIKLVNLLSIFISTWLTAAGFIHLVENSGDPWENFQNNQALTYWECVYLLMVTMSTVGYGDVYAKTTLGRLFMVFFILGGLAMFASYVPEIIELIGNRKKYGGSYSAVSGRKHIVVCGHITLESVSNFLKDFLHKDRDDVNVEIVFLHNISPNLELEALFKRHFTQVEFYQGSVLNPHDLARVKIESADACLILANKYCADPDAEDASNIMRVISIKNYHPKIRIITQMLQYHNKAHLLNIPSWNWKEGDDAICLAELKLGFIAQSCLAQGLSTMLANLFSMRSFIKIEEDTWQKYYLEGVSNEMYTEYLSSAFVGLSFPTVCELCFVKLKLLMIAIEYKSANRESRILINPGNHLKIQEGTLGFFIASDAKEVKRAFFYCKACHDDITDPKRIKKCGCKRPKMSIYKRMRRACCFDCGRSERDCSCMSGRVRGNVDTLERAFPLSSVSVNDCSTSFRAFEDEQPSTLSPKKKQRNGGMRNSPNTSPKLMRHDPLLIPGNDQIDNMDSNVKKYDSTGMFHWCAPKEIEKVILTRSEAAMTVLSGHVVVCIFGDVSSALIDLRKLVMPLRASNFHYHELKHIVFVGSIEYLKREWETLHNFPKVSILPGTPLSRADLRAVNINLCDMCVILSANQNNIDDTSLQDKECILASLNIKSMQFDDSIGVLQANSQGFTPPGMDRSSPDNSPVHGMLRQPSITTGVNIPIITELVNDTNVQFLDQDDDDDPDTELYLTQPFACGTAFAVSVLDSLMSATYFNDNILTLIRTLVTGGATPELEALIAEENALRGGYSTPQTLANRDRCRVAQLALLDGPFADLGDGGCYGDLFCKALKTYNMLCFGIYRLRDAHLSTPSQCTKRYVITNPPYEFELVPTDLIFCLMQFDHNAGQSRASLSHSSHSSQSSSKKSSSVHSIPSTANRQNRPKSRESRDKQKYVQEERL

SMILES | Activity (ΔRFU normalized by activities of LDD175)
COC(=O)c1ccc2c(=O)[nH]c3c(C(=O)Nc4cccc(F)c4)sc(=S)n3c2c1 [TTQC-2, methyl 3-((3-fluorophenyl)carbamoyl)-5-oxo-1-thioxo-4,5-dihydro-1H-thiazolo[3,4-a]quinazoline-8-carboxylate] | 0.99
CCOC(=O)c1ccc(NC(=O)c2sc(=S)n3c2[nH]c(=O)c2ccc(Cl)cc23)cc1 [TTQC-3, ethyl 4-(8-chloro-5-oxo-1-thioxo-4,5-dihydro-1H-thiazolo[3,4-a]quinazoline-3-carboxamido)benzoate] | 0.96
CCc1ccccc1NC(=O)c1sc(=S)n2c1[nH]c(=O)c1ccc(Cl)cc12 [TTQC-4, 8-chloro-N-(2-ethylphenyl)-5-oxo-1-thioxo-4,5-dihydro-1H-thiazolo[3,4-a]quinazoline-3-carboxamide] | 0.95
COc1ccccc1NC(=O)c1sc(=S)n2c1[nH]c(=O)c1cc(Cl)ccc12 [TTQC-5, 7-chloro-N-(2-methoxyphenyl)-5-oxo-1-thioxo-4,5-dihydro-1H-thiazolo[3,4-a]quinazoline-3-carboxamide] | 0.90
CC(C)NC(=O)c1sc(=S)n2c1[nH]c(=O)c1cc(Br)ccc12 [TTQC-6, 7-bromo-N-isopropyl-5-oxo-1-thioxo-4,5-dihydro-1H-thiazolo[3,4-a]quinazoline-3-carboxamide] | 0.90
Cc1ccc2c(c1)c(=O)[nH]c1c(C(=O)Nc3cc(Cl)ccc3C)sc(=S)n12 [TTQC-7, N-(5-chloro-2-methylphenyl)-7-methyl-5-oxo-1-thioxo-4,5-dihydro-1H-thiazolo[3,4-a]quinazoline-3-carboxamide] | 0.89
COC(=O)c1ccc2c(=O)[nH]c3c(C(=O)NCc4ccccc4Cl)sc(=S)n3c2c1 [TTQC-8, methyl 3-((2-chlorobenzyl)carbamoyl)-5-oxo-1-thioxo-4,5-dihydro-1H-thiazolo[3,4-a]quinazoline-8-carboxylate] | 0.84
Cc1ccc(NC(=O)c2sc(=S)n3c2[nH]c(=O)c2cc(Cl)ccc23)c(C)c1 [TTQC-9, 7-chloro-N-(2,4-dimethylphenyl)-5-oxo-1-thioxo-4,5-dihydro-1H-thiazolo[3,4-a]quinazoline-3-carboxamide] | 0.84
Cc1ccc(NC(=O)c2sc(=S)n3c2[nH]c(=O)c2cc(Br)ccc23)c(C)c1 [TTQC-10, 7-bromo-N-(2,4-dimethylphenyl)-5-oxo-1-thioxo-4,5-dihydro-1H-thiazolo[3,4-a]quinazoline-3-carboxamide] | 0.83
Cc1ccc2c(c1)c(=O)[nH]c1c(C(=O)Nc3ccccc3C)sc(=S)n12 [TTQC-11, 7-methyl-5-oxo-1-thioxo-N-(o-tolyl)-4,5-dihydro-1H-thiazolo[3,4-a]quinazoline-3-carboxamide] | 0.82
Cc1ccc(Cl)cc1NC(=O)c1sc(=S)n2c1[nH]c(=O)c1cc3c(cc12)OCO3 [TTQC-12, N-(5-chloro-2-methylphenyl)-5-oxo-1-thioxo-4,5-dihydro-1H-[1,3]dioxolo[4,5-g]thiazolo[3,4-a]quinazoline-3-carboxamide] | 0.81
COC(=O)c1ccc2c(=O)[nH]c3c(C(=O)Nc4ccc(F)cc4F)sc(=S)n3c2c1 [TTQC-13, methyl 3-((2,4-difluorophenyl)carbamoyl)-5-oxo-1-thioxo-4,5-dihydro-1H-thiazolo[3,4-a]quinazoline-8-carboxylate] | 0.79
Cc1ccc(CNC(=O)c2sc(=S)n3c2[nH]c(=O)c2cc(Br)ccc23)cc1 [TTQC-14, 7-bromo-N-(4-methylbenzyl)-5-oxo-1-thioxo-4,5-dihydro-1H-thiazolo[3,4-a]quinazoline-3-carboxamide] | 0.76
COc1ccc(OC)c(NC(=O)c2sc(=S)n3c2[nH]c(=O)c2cc(Br)ccc23)c1 [TTQC-15, 7-bromo-N-(2,5-dimethoxyphenyl)-5-oxo-1-thioxo-4,5-dihydro-1H-thiazolo[3,4-a]quinazoline-3-carboxamide] | 0.71
O=C(NCC1CCCO1)c1sc(=S)n2c1[nH]c(=O)c1cc(Br)ccc12 (stereo not drawn) [TTQC-16, 7-bromo-5-oxo-N-((tetrahydrofuran-2-yl)methyl)-1-thioxo-4,5-dihydro-1H-[1,3]thiazolo[3,4-a]quinazoline-3-carboxamide] | 0.64
COc1cc2c(=O)[nH]c3c(C(=O)Nc4cc(Cl)ccc4C)sc(=S)n3c2cc1OC [TTQC-17, N-(5-chloro-2-methylphenyl)-7,8-dimethoxy-5-oxo-1-thioxo-4,5-dihydro-1H-thiazolo[3,4-a]quinazoline-3-carboxamide] | 0.64
COc1ccc(OC)c(NC(=O)c2sc(=S)n3c2[nH]c(=O)c2cc(C)ccc23)c1 [TTQC-18, N-(2,5-dimethoxyphenyl)-7-methyl-5-oxo-1-thioxo-4,5-dihydro-1H-thiazolo[3,4-a]quinazoline-3-carboxamide] | 0.63

SMILES | Activity (ΔRFU normalized by activities of LDD175)
CCc1ccccc1NC(=O)c1sc(=S)n2c1[nH]c(=O)c1cc3c(cc12)OCO3 [TTQC-19, N-(2-ethylphenyl)-5-oxo-1-thioxo-4,5-dihydro-1H-[1,3]dioxolo[4,5-g]thiazolo[3,4-a]quinazoline-3-carboxamide] | 0.62
O=C(NCc1ccccc1Cl)c1sc(=S)n2c1[nH]c(=O)c1cc(Br)ccc12 [TTQC-20, 7-bromo-N-(2-chlorobenzyl)-5-oxo-1-thioxo-4,5-dihydro-1H-thiazolo[3,4-a]quinazoline-3-carboxamide] | 0.62
O=C(NCc1ccccc1Cl)c1sc(=S)n2c1[nH]c(=O)c1cc(Cl)ccc12 [TTQC-21, 7-chloro-N-(2-chlorobenzyl)-5-oxo-1-thioxo-4,5-dihydro-1H-thiazolo[3,4-a]quinazoline-3-carboxamide] | 0.60
COc1cc2c(=O)[nH]c3c(C(=O)Nc4ccccc4)sc(=S)n3c2cc1OC [TTQC-22, 7,8-dimethoxy-5-oxo-N-phenyl-1-thioxo-4,5-dihydro-1H-thiazolo[3,4-a]quinazoline-3-carboxamide] | 0.57
O=C(NC1CCCC1)c1sc(=S)n2c1[nH]c(=O)c1ccc(Cl)cc12 [TTQC-23, 8-chloro-N-cyclopentyl-5-oxo-1-thioxo-4,5-dihydro-1H-thiazolo[3,4-a]quinazoline-3-carboxamide] | 0.55
COc1ccccc1NC(=O)c1sc(=S)n2c1[nH]c(=O)c1cc3c(cc12)OCO3 [TTQC-24, N-(2-methoxyphenyl)-5-oxo-1-thioxo-4,5-dihydro-1H-[1,3]dioxolo[4,5-g]thiazolo[3,4-a]quinazoline-3-carboxamide] | 0.51
CNC(=O)c1sc(=S)n2c1[nH]c(=O)c1ccc(Cl)cc12 [TTQC-25, 8-chloro-N-methyl-5-oxo-1-thioxo-4,5-dihydro-1H-thiazolo[3,4-a]quinazoline-3-carboxamide] | 0.50
O=C(Nc1ccc(Br)cc1F)c1sc(=S)n2c1[nH]c(=O)c1ccc(Cl)cc12 [TTQC-26, N-(4-bromo-2-fluorophenyl)-8-chloro-5-oxo-1-thioxo-4,5-dihydro-1H-thiazolo[3,4-a]quinazoline-3-carboxamide] | 0.49
O=C(NCC1CCCO1)c1sc(=S)n2c1[nH]c(=O)c1cc(Cl)ccc12 (stereo not drawn) [TTQC-27, 7-chloro-5-oxo-N-((tetrahydrofuran-2-yl)methyl)-1-thioxo-4,5-dihydro-1H-thiazolo[3,4-a]quinazoline-3-carboxamide] | 0.47
CCOc1ccccc1NC(=O)c1sc(=S)n2c1[nH]c(=O)c1cc(Cl)ccc12 [TTQC-28, 7-chloro-N-(2-ethoxyphenyl)-5-oxo-1-thioxo-4,5-dihydro-1H-thiazolo[3,4-a]quinazoline-3-carboxamide] | 0.45
COc1cccc(CNC(=O)c2sc(=S)n3c2[nH]c(=O)c2ccc(Cl)cc23)c1 [TTQC-29, 8-chloro-N-(3-methoxybenzyl)-5-oxo-1-thioxo-4,5-dihydro-1H-thiazolo[3,4-a]quinazoline-3-carboxamide] | 0.45
O=C(c1sc(=S)n2c1[nH]c(=O)c1cc(Br)ccc12)N1CCCCC1 [TTQC-30, 7-bromo-3-(piperidine-1-carbonyl)-1-thioxo-1H-thiazolo[3,4-a]quinazolin-5(4H)-one] | 0.37
Cc1ccc(NC(=O)c2sc(=S)n3c2[nH]c(=O)c2cc(C)ccc23)c(C)c1 [TTQC-31, N-(2,4-dimethylphenyl)-7-methyl-5-oxo-1-thioxo-4,5-dihydro-1H-thiazolo[3,4-a]quinazoline-3-carboxamide] | 0.34
CCc1ccc(NC(=O)c2sc(=S)n3c2[nH]c(=O)c2cc(Br)ccc23)cc1 [TTQC-32, 7-bromo-N-(4-ethylphenyl)-5-oxo-1-thioxo-4,5-dihydro-1H-thiazolo[3,4-a]quinazoline-3-carboxamide] | 0.34
COc1ccc(CNC(=O)c2sc(=S)n3c2[nH]c(=O)c2ccc(Cl)cc23)cc1 [TTQC-33, 8-chloro-N-(4-methoxybenzyl)-5-oxo-1-thioxo-4,5-dihydro-1H-thiazolo[3,4-a]quinazoline-3-carboxamide] | 0.34
COc1ccc(OC)c(NC(=O)c2sc(=S)n3c2[nH]c(=O)c2ccc(Cl)cc23)c1 [TTQC-34, 8-chloro-N-(2,5-dimethoxyphenyl)-5-oxo-1-thioxo-4,5-dihydro-1H-thiazolo[3,4-a]quinazoline-3-carboxamide] | 0.31
